US9212201B2, “Antifungal and antiparasitic polyene macrolides” (priority 2010, dated 2015)
Converted amounts (≈) assume the structure as drawn.

What was measured:
Test in all cases: In vitro antifungal susceptibility CLSI M27-A2 (MIC, MFC)
Type in all cases: cell-based
[1] = tested on: C. albicans; conditions: C. albicans (10)
[2] = tested on: C. glabrata; conditions: C. glabrata (10)
[3] = tested on: C. parapsilosis; conditions: C. parapsilosis (10)
[4] = tested on: C. tropicalis; conditions: C. tropicalis (10)
[5] = tested on: C. lusitaniae; conditions: C. lusitaniae (10)
[6] = tested on: C. kefyr; conditions: C. kefyr (10)
[7] = tested on: C. krusei; conditions: C. krusei (10)
[8] = tested on: C. rugosa; conditions: C. rugosa (2)
[9] = tested on: C. guilliermondii; conditions: C. guilliermondii (2)
[10] = tested on: Other Candida species (C. lipolytica, C. sake, C. sphaerica, C. norvegica); conditions: Other Candida spp. (4)

Q: Which “MIC Range” value [1] does the source give for `C[C@@H](c1ncncc1F)[C@](O)(Cn1cncn1)c1ccc(F)cc1F` [Voriconazole, voriconazole] here?
A: <0.03 to 0.25 µg/mL

Q: And the MIC ([1]; Candida albicans, read-out: GM (geometric mean MIC))?
A: 0.06 µg/mL (≈ 0.172 µM)

Q: And the MIC50 ([1]; Candida albicans, read-out: MIC50)?
A: 0.03 µg/mL (≈ 0.0859 µM)

Q: And the MIC90 ([1]; Candida albicans, read-out: MIC90)?
A: 0.06 µg/mL (≈ 0.172 µM)

Q: And the “MIC Range” value [2]?
A: 0.12 to 2 µg/mL

Q: What about the MIC ([2]; Nakaseomyces glabratus, read-out: GM (geometric mean MIC)) of the same molecule?
A: 0.56 µg/mL (≈ 1.6 µM)

Q: What about the MIC50 ([2]; Nakaseomyces glabratus, read-out: MIC50) of the same molecule?
A: 0.5 µg/mL (≈ 1.43 µM)

Q: What about the MIC90 ([2]; Nakaseomyces glabratus, read-out: MIC90) of the same molecule?
A: 0.5 µg/mL (≈ 1.43 µM)

Q: And the “MIC Range” value [3]?
A: <0.03 to 0.12 µg/mL

Q: What about the MIC ([3]; Lodderomyces parapsilosis, read-out: GM (geometric mean MIC)) of the same molecule?
A: 0.04 µg/mL (≈ 0.115 µM)

Q: What about the MIC50 ([3]; Lodderomyces parapsilosis, read-out: MIC50) of the same molecule?
A: < 0.03 µg/mL

Q: And the MIC90 ([3]; Lodderomyces parapsilosis, read-out: MIC90)?
A: 0.03 µg/mL (≈ 0.0859 µM)

Q: What about the “MIC Range” value [4] of the same molecule?
A: <0.03 to 0.5 µg/mL

Q: And the MIC ([4]; Candida tropicalis, read-out: GM (geometric mean MIC))?
A: 0.13 µg/mL (≈ 0.372 µM)

Q: And the MIC50 ([4]; Candida tropicalis, read-out: MIC50)?
A: 0.06 µg/mL (≈ 0.172 µM)

Q: What about the MIC90 ([4]; Candida tropicalis, read-out: MIC90) of the same molecule?
A: 0.12 µg/mL (≈ 0.344 µM)

Q: What about the “MIC Range” value [5] of the same molecule?
A: <0.03 to 0.06 µg/mL

Q: And the MIC ([5]; Clavispora lusitaniae, read-out: GM (geometric mean MIC))?
A: 0.03 µg/mL (≈ 0.0859 µM)

Q: What about the MIC50 ([5]; Clavispora lusitaniae, read-out: MIC50) of the same molecule?
A: < 0.03 µg/mL

Q: And the MIC90 ([5]; Clavispora lusitaniae, read-out: MIC90)?
A: 0.03 µg/mL (≈ 0.0859 µM)

Q: What about the “MIC Range” value [6] of the same molecule?
A: <0.03 to 16 µg/mL

Q: And the MIC ([6]; Kluyveromyces marxianus, read-out: GM (geometric mean MIC))?
A: 1.63 µg/mL (≈ 4.67 µM)

Q: And the MIC50 ([6]; Kluyveromyces marxianus, read-out: MIC50)?
A: < 0.03 µg/mL

Q: What about the MIC90 ([6]; Kluyveromyces marxianus, read-out: MIC90) of the same molecule?
A: 0.6 µg/mL (≈ 1.72 µM)

Q: And the “MIC Range” value [7]?
A: 0.25 to 0.5 µg/mL

Q: What about the MIC ([7]; Pichia kudriavzevii, read-out: GM (geometric mean MIC)) of the same molecule?
A: 0.425 µg/mL (≈ 1.22 µM)

Q: What about the MIC50 ([7]; Pichia kudriavzevii, read-out: MIC50) of the same molecule?
A: 0.25 µg/mL (≈ 0.716 µM)

Q: What about the MIC90 ([7]; Pichia kudriavzevii, read-out: MIC90) of the same molecule?
A: 0.5 µg/mL (≈ 1.43 µM)

Q: What about the “MIC Range” value [8] of the same molecule?
A: 0.25 µg/mL (≈ 0.716 µM)

Q: What about the MIC ([8]; Diutina rugosa, read-out: GM (geometric mean MIC)) of the same molecule?
A: 0.25 µg/mL (≈ 0.716 µM)

Q: What about the “MIC Range” value [9] of the same molecule?
A: 0.06 µg/mL (≈ 0.172 µM)

Q: And the MIC ([9]; Meyerozyma guilliermondii, read-out: GM (geometric mean MIC))?
A: 0.06 µg/mL (≈ 0.172 µM)

Q: What about the “MIC Range” value [10] of the same molecule?
A: <0.03 to 1.0 µg/mL

Q: What about the MIC ([10]; read-out: GM (geometric mean MIC)) of the same molecule?
A: 0.39 µg/mL (≈ 1.12 µM)

Q: And the MIC50 ([10]; read-out: MIC50)?
A: 0.06 µg/mL (≈ 0.172 µM)
